Reference: PubChem BioAssay AID1963985 (Molecular Pharmacology Branch, DTP, NCI, 2024)

Tested on: 252836-082-R-J2-PDC tumor spheroids, viability
Assay: Anticancer human tumor 252836-082-R-J2-PDC patient-derived head and neck squamous cell carcinoma cell line growth inhibition [PI3K]
Details: spheroids with HUVEC and MSC; for IC50: curve of first compound; for viability, T/C: stronger effect = lower value
Source text: Combinatorial screen of targeted agents with the PI3K inhibitors inavolisib, alpelisib, duvelisib, and copanlisib in multi-cell type tumor spheroids
A high-throughput screen of multi-cell type tumor spheroids was designed to identify active combinations of targeted small molecules and PI3K pathway inhibitors. Complex spheroids include a stromal component modeled by human endothelial cells (HUVEC) and fibroblasts modeled by human mesenchymal stem cells (MSCs). The concentration ranges selected for each drug and investigational agent were based upon clinically achievable concentrations if the clinical Cmax of the agent was known.
Compounds. The drugs and investigational agents: inavolisib (NSC800729), alpelisib (NSC765974), duvelisib (NSC772469), copanlisib (NSC816437), ipatasertib (NSC767898), afuresertib (NSC778305), talazoparib (NSC767125), sapanisertib (NSC764658), selumetinib (NSC741078), tovorafenib (DAY101, NSC766906), vemurafenib (NSC761431), ravoxertinib (NSC781343), sotorasib (NSC818433), MRTX1133 (NSC 836407), abemaciclib (NSC 768073), palbociclib (NSC758247), venetoclax (NSC 766270), SY5609 (NSC837396), enzalutamide (NSC755605), and darolutamide (NSC825331), were obtained from the National Cancer Institute (NCI) Developmental Therapeutics Program Chemical Repository. The FDA-approved anticancer drug set is available from the NCI Developmental Therapeutics Program. […] The stock solutions were prepared in dimethyl sulfoxide (DMSO, Sigma-Aldrich, St. Louis, MO, cat. D2650) at 800-fold the tested concentration and stored at -70 degrees C prior to their use. All drugs and investigational agents were tested over a range starting from a high concentration at or near the clinical Cmax and decreasing in half-log increments. If the clinical Cmax for an agent had not been determined, the highest concentration tested was 10 microM.
Cell Culture. All cells were maintained in an incubator at 37 degrees C and 5% CO2 with 95% humidity. The PDC lines were cultured according to standard operating procedures established by the NCI PDMR (https://pdmr.cancer.gov/sops/default.htm). All PDCs were thawed and cultured in Matrigel-coated flasks prepared with a working solution of 1X Ham's F-12 nutrient mix, without supplementation (Invitrogen, Waltham, MA, cat. 11765054), 100 U/mL penicillin-streptomycin (Invitrogen, cat. 15140122), and 2.5% Matrigel (Corning Inc., Corning, NY, cat. 354248) for the first three passages. The 354836-022-R-J1-PDC, 475296-252-R-J1-PDC, and 997726-040-R-J2-PDC lines were cultured in 6A media, which includes advanced DMEM/F-12 (Thermo Fisher Scientific, cat. 12634028), 10 mM HEPES (Thermo Fisher Scientific, cat. 15630080), 1X GlutaMAX supplement (Thermo Fisher Scientific, cat. 35050061), 0.1 mg/mL primocin (InvivoGen, San Diego, CA, cat. ant-pm-2), 10% defined fetal bovine serum, heat inactivated (HyClone Laboratories Inc., Logan, UT, cat. SH30070.03HI), 50% L-WRN conditioned media (ATCC, cat. CRL-3276), 1.25 mM N-Acetyl-L-cysteine (Sigma-Aldrich, cat. A9165), 10 mM nicotinamide (Sigma-Aldrich, cat. N0636), 1X B-27 supplement (Thermo Fisher Scientific, cat. 17504044), 1X N-2 supplement (Thermo Fisher Scientific, cat. 17502048), and 10 microM Y-27632 dihydrochloride (Tocris Bioscience, Bristol, United Kingdom, cat. 1254). The 624824-186-R-J2-PDC line was cultured in 6C/Colon 1B media, which includes all 6A media components plus 50 ng/mL human EGF recombinant protein (Thermo Fisher Scientific, cat. PHG0311). […]
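Further: spheroids exposed to agents for seven days before readout.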
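Wherever viability, T/C is given: percent of vehicle DMSO control viability so 100% = untreated growth.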

`CC1(C)CCC(CN2CCN(c3ccc(C(=O)NS(=O)(=O)c4ccc(NCC5CCOCC5)c([N+](=O)[O-])c4)c(Oc4cnc5[nH]ccc5c4)c3)CC2)=C(c2ccc(Cl)cc2)C1` + Cc1nc(NC(=O)N2CCCC2C(N)=O)sc1-c1ccnc(C(C)(C)C(F)(F)F)c1 was tested. Which IC50 (second compound 0.0316 µM) did it give?
The IC50 was 5.42 µM.

And the IC50 (second compound 0.1 µM)?
Its IC50 is 5.2 µM.

And the IC50 (second compound 0.316 µM)?
Its IC50 is 4.13 µM.

What about the IC50 (second compound 1 µM) of the same compound?
Its IC50 is 4.08 µM.

What about the IC50 (second compound 3.16 µM) of the same compound?
The IC50 was 2.74 µM.

What about the IC50 (second compound 10 µM) of the same compound?
The IC50 was < 0.0316 µM.

What about the viability, T/C (second compound 0.0316 µM, first compound 0.0316 µM) of the same compound?
The viability, T/C was 91.7%.

And the viability, T/C (second compound 0.0316 µM, first compound 0.1 µM)?
Its viability, T/C is 77.8%.

And the viability, T/C (second compound 0.0316 µM, first compound 0.316 µM)?
The viability, T/C was 96.2%.

And the viability, T/C (second compound 0.0316 µM, first compound 1 µM)?
Its viability, T/C is 96.8%.

And the viability, T/C (second compound 0.0316 µM, first compound 3.16 µM)?
Its viability, T/C is 89.8%.

And the viability, T/C (second compound 0.0316 µM, first compound 10 µM)?
The viability, T/C was 4.76%.

And the viability, T/C (second compound 0.1 µM, first compound 0.0316 µM)?
Its viability, T/C is 83.1%.

And the viability, T/C (second compound 0.1 µM, first compound 0.1 µM)?
Its viability, T/C is 87.5%.

And the viability, T/C (second compound 0.1 µM, first compound 0.316 µM)?
The viability, T/C was 83.2%.

And the viability, T/C (second compound 0.1 µM, first compound 1 µM)?
The viability, T/C was 80.9%.

What about the viability, T/C (second compound 0.1 µM, first compound 3.16 µM) of the same compound?
The viability, T/C was 94.4%.

What about the viability, T/C (second compound 0.1 µM, first compound 10 µM) of the same compound?
Its viability, T/C is 2.88%.

And the viability, T/C (second compound 0.316 µM, first compound 0.0316 µM)?
The viability, T/C was 92.8%.

And the viability, T/C (second compound 0.316 µM, first compound 0.1 µM)?
Its viability, T/C is 86.1%.

What about the viability, T/C (second compound 0.316 µM, first compound 0.316 µM) of the same compound?
The viability, T/C was 75.5%.

And the viability, T/C (second compound 0.316 µM, first compound 1 µM)?
The viability, T/C was 84%.

And the viability, T/C (second compound 0.316 µM, first compound 3.16 µM)?
Its viability, T/C is 64%.

What about the viability, T/C (second compound 0.316 µM, first compound 10 µM) of the same compound?
The viability, T/C was 3.65%.

And the viability, T/C (second compound 1 µM, first compound 0.0316 µM)?
The viability, T/C was 63.6%.

And the viability, T/C (second compound 1 µM, first compound 0.1 µM)?
Its viability, T/C is 63.6%.

And the viability, T/C (second compound 1 µM, first compound 0.316 µM)?
The viability, T/C was 64%.

What about the viability, T/C (second compound 1 µM, first compound 1 µM) of the same compound?
Its viability, T/C is 65.6%.

What about the viability, T/C (second compound 1 µM, first compound 3.16 µM) of the same compound?
Its viability, T/C is 63.1%.

What about the viability, T/C (second compound 1 µM, first compound 10 µM) of the same compound?
Its viability, T/C is 3.88%.

What about the viability, T/C (second compound 3.16 µM, first compound 0.0316 µM) of the same compound?
The viability, T/C was 59.1%.

And the viability, T/C (second compound 3.16 µM, first compound 0.1 µM)?
The viability, T/C was 53.5%.

And the viability, T/C (second compound 3.16 µM, first compound 0.316 µM)?
Its viability, T/C is 46.3%.

And the viability, T/C (second compound 3.16 µM, first compound 1 µM)?
Its viability, T/C is 55.1%.

What about the viability, T/C (second compound 3.16 µM, first compound 3.16 µM) of the same compound?
The viability, T/C was 49.4%.

What about the viability, T/C (second compound 3.16 µM, first compound 10 µM) of the same compound?
The viability, T/C was 2.29%.

And the viability, T/C (second compound 10 µM, first compound 0.0316 µM)?
Its viability, T/C is 32.3%.

And the viability, T/C (second compound 10 µM, first compound 0.1 µM)?
The viability, T/C was 39.4%.

What about the viability, T/C (second compound 10 µM, first compound 0.316 µM) of the same compound?
Its viability, T/C is 38.9%.

And the viability, T/C (second compound 10 µM, first compound 1 µM)?
Its viability, T/C is 34%.

What about the viability, T/C (second compound 10 µM, first compound 3.16 µM) of the same compound?
Its viability, T/C is 36.1%.

What about the viability, T/C (second compound 10 µM, first compound 10 µM) of the same compound?
The viability, T/C was 1.57%.
